Series [1] deals with dystrophin in mouse primary skeletal muscle cultures derived from mdx mice. Nature of the series: dystrophin immunostaining in primary skeletal muscle cultures from mdx mice. The format is cell-based. The conditions noted are these: 20 μM, cells cultured for 10 days. The method, then:
Mouse primary skeletal muscle cultures derived from 1-day old mdx mice were prepared as described previously (Barton-Davis et al., 1999, J Clin Invest. 104(4):375-381). Cells were cultured for 10 days in the presence of 3-[2-(4-Isopropyl-3-methyl-phenoxy)-acetylamino]-benzoic acid, sodium salt (20 μM). Culture medium was replaced every four days and the presence of dystrophin in myoblast cultures was detected by immunostaining as described previously (Barton-Davis et al., 1999, J Clin Invest. 104(4):375-381). A primary monoclonal antibody to the C-terminus of the dystrophin protein (F19A12) was used undiluted and rhodamine conjugated anti-mouse IgG was used as the secondary antibody. The F19A12 antibody will detect the full-length protein produced by suppression of the nonsense codon. Staining was viewed using a Leica DMR micropscope, digital camera, and associated imaging software at the University of Pennsylvania.

The test system of series [2] is CFTR in a bronchial epithelial cell line harboring a nonsense codon at amino acid 1282 (W1282X). Nature of the series: CFTR function as cAMP-activated chloride channel, SPQ assay. The format is cell-based. The conditions noted are these: compound, cAMP stimulation. The method, then: To address the effects of the nonsense-suppressing compounds on mRNAs altered in specific inherited diseases, a bronchial epithelial cell line harboring a nonsense codon at amino acid 1282 (W1282X) was treated with 3-[2-(4-Isopropyl-3-methyl-phenoxy)-acetylamino]-benzoic acid, sodium salt (20RM) and CFTR function was monitored as a cAMP-activated chloride channel using the SPQ assay (Yang et al., 1993, Hum Mol Genet. 2(8):1253-1261 and Howard et al., 1996, Nat Med. 2(4):467-469). […] No increase in fluorescence was observed when cells were not treated with compound or if the cells were not stimulated with cAMP.

The subject of the next series is 28S rRNA. The series can be described thus: chemical foot-printing of ribosomes prepared from HeLa cells (DMS, kethoxal). The class given is binding. The note with it: 100 μM, DMS and kethoxal. How it is done: Ribosomes prepared from HeLa cells were incubated with the small molecules (at a concentration of 100 μM), followed by treatment with chemical modifying agents (dimethyl sulfate [DMS] and kethoxal [KE]). Following chemical modification, rRNA was phenol-chloroform extracted, ethanol precipitated, analyzed in primer extension reactions using end-labeled oligonucleotides hybridizing to different regions of the three rRNAs and resolved on 6% polyacrylamide gels. The probes used for primer extension cover the entire 18S (7 oligonucleotide primers), 28S (24 oligonucleotide primers), and 5S (one primer) rRNAs. Controls in these experiments include DMSO (a control for changes in rRNA accessibility induced by DMSO), paromomycin (a marker for 18S rRNA binding), and anisomycin (a marker for 28S rRNA binding).

The subject of series [3] is luciferase reporter construct containing a UGA premature termination codon stably transfected in 293T Human Embryonic Kidney cells. Nature of the series: cell-based luciferase reporter assay (UGA premature termination codon). The note with it: for Activity: ranking combining potency (minimum concentration to produce protein) and efficacy (maximum protein produced), 293T cells, UGA luciferase reporter, gentamicin internal standard. How it is done:
Melting points in Table 1 were obtained on an Electrothermal MeltTemp apparatus and are uncorrected. Activity measurements in Table 1 were performed in a cell-based luciferase reporter assay (as described in Section 4.2) comprising a luciferase reporter construct containing a UGA premature termination codon that was stably transfected in 293T Human Embryonic Kidney cells. Gentamicin, a small molecule known to allow readthrough of premature termination codons, was used as an internal standard. Activity measurements are based on the qualitative relation between the minimum concentration of compound required to produce a given protein in a cell (potency) and the maximum amount of protein produced by the cell (efficacy). Potency and efficacy activities are ranked as either extremely high, very high or significant. The combination of these activities is used to determine the activity ranking.
(§1) Two assays were developed for use in high throughput screens to identify small molecules that promote nonsense suppression. Each assay utilized luciferase because it is a functional reporter gene assay (light is only produced if the protein is functional) and it is extremely sensitive (Light intensity is proportional to luciferase concentration in the nM range). The first assay is a cell-based luciferase reporter assay and the second is a biochemical assay consisting of rabbit reticulocyte lysate and a nonsense-containing luciferase reporter mRNA. In the cell-based assay, a luciferase reporter construct containing a UGA premature termination codon was stably transfected in 293T Human Embryonic Kidney cells. In the biochemical assay, mRNA containing a UGA premature termination codon was used as a reporter in an in vitro translation reaction using rabbit reticulocyte lysate supplemented with tRNA, hemin, creatine kinase, amino acids, KOAc, Mg(OAc)2, and creatine phosphate. […] Synthetic mRNA was prepared in vitro using the T7 promoter and the MegaScript in vitro transcription kit (Ambion).
To determine whether compounds also function in vivo, a stable cell line harboring the UGA nonsense-containing luciferase gene was treated with selected compounds. Cells were grown in standard medium supplemented with 1% penicillin-streptomycin (P/S) and 10% fetal bovine serum (FBS) to 70% confluency and split 1:1 the day before treatment. On the following day, cells were trypsinized and 40,000 cells were added to each well of a 96-well tissue culture dish. Serial dilutions of each compound were prepared to generate a six-point dose response curve spanning 2 logs (30 μM to 0.3 μM). The final concentration of the DMSO solvent remained constant at 1% in each well. Cells treated with 1% DMSO served as the background standard, and cells treated with gentamicin served as a positive control.
(In general: A reporter such as luciferase makes a cellular process visible.)

Series [4] concerns tripeptidyl-peptidase 1 (TPP-I) in patient-derived LINCL cell line. The conditions noted are these: patient-derived cell line compound heterozygous for Arg208Stop and another nonsense mutation; maximal; cited from earlier work.
The test system of series [5] is nonsense-containing luciferase reporter mRNA (UGA premature termination codon) in rabbit reticulocyte lysate. The series can be described thus: biochemical luciferase nonsense suppression assay (in vitro translation). The note with it: internal standard.
From the text: as §1

Series [6] has as its system dystrophin premature stop codon in mdx mice. The conditions noted are these: cited from earlier work.

A word on the melting point: it is the temperature of the solid-liquid transition.

In the case of `Cc1cc(OCC(=O)Nc2cccc(C(=O)[O-])c2)ccc1C(C)C.[Na+]` [Compound 46, 3-[2-(4-Isopropyl-3-methyl-phenoxy)-acetylamino]-benzoic acid, Sodium salt], the melting point lay within 188 to 189 °C. Besides, the “full-length dystrophin expression (immunostaining)” value in series [1] was “EXPRESS FULL-LENGTH […]”. Besides, the “CFTR function (SPQ fluorescence, chloride channel activity)” value in series [2] was “increase chloride channel activity”. For the same compound, in the series with 28S rRNA, the “accessibility of chemical modifying agents to rRNA nucleotides (foot-printing)” value is “alters the accessibility of the chemical modifying agents to specific nucleotides in the 28S rRNA”.

With `O=C(COc1ccc([N+](=O)[O-])cn1)Nc1cccc(C(=O)O)c1` [Compound 71, 3-[2-(5-Nitro-pyridin-2-yloxy)-acetylamino]-benzoic acid], the melting point is 233 to 236 °C. Also, in series [3], the Activity is 0.

In turn, `O=C(COc1ccc(COCCCCN2C(=O)c3ccccc3C2=O)cc1)Nc1cccc(C(=O)O)c1` [Compound 73, 3-(2-{4-[4-(1,3-Dioxo-1,3-dihydro-isoindol-2-yl)-butoxymethyl]-phenoxy}-acetylamino)-benzoic acid] showed a melting point of 95 to 100 °C. For the same compound, in series [3], the Activity was determined as 0.

Regarding `Cc1cc(C)nc(SCc2ccc(OCC(=O)Nc3cccc(C(=O)O)c3)cc2)n1` [Compound 74, 3-{2-[4-(4,6-Dimethyl-pyrimidin-2-ylsulfanylmethyl)-phenoxy]-acetylamino}-benzoic acid], the melting point is 194 to 196 °C. The Activity in series [3] amounted to 0.

With `N#CCc1ccc(OCC(=O)Nc2cccc(C(=O)O)c2)cc1` [Compound 77, 3-[2-(4-Cyanomethyl-phenoxy)-acetylamino]-benzoic acid], the melting point fell in the range of 245 to 247 °C. The Activity in series [3] is listed as 0.

Turning to `O=C(COc1ccc(Cc2nnc(-c3ccccc3)o2)cc1)Nc1cccc(C(=O)O)c1` [Compound 80, 3-{2-[4-(5-Phenyl-[1,3,4]oxadiazol-2-ylmethyl)-phenoxy]-acetylamino}-benzoic acid], the melting point fell in the range of 207 to 210 °C. Also, the Activity in series [3] is 0.

Compound `O=C(O)c1cccc(N2CCC(Oc3ccc([N+](=O)[O-])cc3)C2=O)c1` (stereo not drawn) [Compound 81, 3-[3-(4-Nitro-phenoxy)-2-oxo-pyrrolidin-1-yl]-benzoic acid] registered a melting point of 178 to 180 °C. Also, the Activity in series [3] came to 0.

Regarding `COc1ccc(OC2CCN(c3cccc(C(=O)O)c3)C2=O)cc1` (stereo not drawn) [Compound 82, 3-[3-(4-Methoxy-phenoxy)-2-oxo-pyrrolidin-1-yl]-benzoic acid], the melting point lay in the range of 198 to 201 °C. Moreover, in series [3], the Activity is listed as 0.

For `CC(C)(C)c1ccc(OC2CCN(c3cccc(C(=O)O)c3)C2=O)cc1` (stereo not drawn) [Compound 88, 3-[3-(4-tert-Butyl-phenoxy)-2-oxo-pyrrolidin-1-yl]-benzoic acid], the melting point lay in the range of 238 to 241 °C. In addition, the Activity in series [3] came to 0.

Regarding gentamicin, the luciferase activity result in series [3] (cell-based assay, internal standard) is on record as “increased luciferase activity”; in series [5] it was “increased luciferase activity”. The TPP-I restored entry in series [4] is “approximately 7 % of normal levels of TPP-I”.

Regarding gentamicin sulfate, the “suppression of translational termination at premature stop codon (dystrophin)” value in series [6] is reported as “full length dystrophin”.

These data come from patent publication US7763656B2, “Use of Acetylamino benzoic acid compounds for nonsense suppression and the treatment of disease” (PTC Therapeutics, Inc., priority 2002, dated 2010).
